Reference: ChEMBL document CHEMBL1201862, “PubChem BioAssay data set” (2004)
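Interpolation was linear, between the two tested concentrations surrounding the appropriate level; five concentrations were tested over 48 hours in 96-well plates. At the GI50, growth is halved.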 Calls of active or inactive are those of the source. No stated cut-off is given here; in the data, active = GI50 up to about 1.1 µM and inactive = higher.

What was measured:
Experiment in all cases: DTP human tumour cell line panel, 48 h
HOP-62 = system: HOP-62
UACC-62 = system: UACC-62
RPMI-8226 = system: RPMI-8226
SF-268 = system: SF-268
SK-MEL-2 = system: SK-MEL-2
CCRF-CEM = system: CCRF-CEM
NCI-H23 = system: NCI-H23
OVCAR-8 = system: OVCAR-8
IGROV-1 = system: IGROV-1
SNB-19 = system: SNB-19
U-251 = system: U-251
SK-MEL-5 = system: SK-MEL-5
SW-620 = system: SW-620
LOX IMVI = system: LOX IMVI
SK-OV-3 = system: SK-OV-3
HL-60 = system: HL-60
K562 = system: K562
COLO 205 = system: COLO 205
HCT-15 = system: HCT-15
HOP-92 = system: HOP-92

Row | SMILES | GI50 (HOP-62) | GI50 (UACC-62) | GI50 (RPMI-8226) | GI50 (SF-268) | GI50 (SK-MEL-2) | GI50 (CCRF-CEM) | GI50 (NCI-H23) | GI50 (OVCAR-8) | GI50 (IGROV-1) | GI50 (SNB-19) | GI50 (U-251) | GI50 (SK-MEL-5) | GI50 (SW-620) | GI50 (LOX IMVI) | GI50 (SK-OV-3) | GI50 (HL-60) | GI50 (K562) | GI50 (COLO 205) | GI50 (HCT-15) | GI50 (HOP-92)
1 | Nc1n[nH]c2nc3ccccc3nc12 [QUINOXALINE1] | 61 µM (inactive) | 45 µM (inactive) | 36.1 µM (inactive) | 66.4 µM (inactive) | > 100 µM (inactive) | 34.4 µM (inactive) | > 100 µM (inactive) | > 100 µM (inactive) | 18.1 µM (inactive) | > 100 µM (inactive) | > 100 µM (inactive) | > 100 µM (inactive) | 86.7 µM (inactive) | 47 µM (inactive) | > 100 µM (inactive) | 34.8 µM (inactive) | > 100 µM (inactive) | 61.8 µM (inactive) | 75.2 µM | > 100 µM (inactive)
2 | O=C1OC2(OC2c2ccc(Cl)cc2)c2ccccc21 (stereo not drawn) | 20.4 µM (inactive) | > 100 µM (inactive) | 89.1 µM (inactive) | > 100 µM (inactive) | > 100 µM (inactive) | 51.5 µM (inactive) |  | > 100 µM (inactive) | > 100 µM (inactive) | 73.8 µM (inactive) |  |  | > 100 µM (inactive) | 17.8 µM (inactive) | > 100 µM (inactive) | 34.3 µM (inactive) | 53.1 µM (inactive) | > 100 µM (inactive) | > 100 µM | > 100 µM (inactive)
3 | O=C(O)c1cc2sc(C(=O)O)cc2s1 | > 100 µM (inactive) | > 100 µM (inactive) | > 100 µM (inactive) | > 100 µM (inactive) |  | > 100 µM (inactive) | > 100 µM (inactive) |  | > 100 µM (inactive) | > 100 µM (inactive) | > 100 µM (inactive) | > 100 µM (inactive) | > 100 µM (inactive) | > 100 µM (inactive) | > 100 µM (inactive) | > 100 µM (inactive) | > 100 µM (inactive) | > 100 µM (inactive) | > 100 µM | > 100 µM (inactive)
4 | Cc1cnc(/C=N\NC(N)=S)c2cccc(N)c12 | 0.904 µM (active) | 0.359 µM (active) | 0.714 µM (active) | 0.565 µM (active) | 2.1 µM (inactive) | 0.278 µM (active) | 0.334 µM (active) | 0.838 µM (active) | 1.75 µM (inactive) | 1.3 µM (inactive) | 0.604 µM (active) | 2.04 µM (inactive) | 3.01 µM (inactive) | 0.445 µM (active) | 2.59 µM (inactive) | 0.3 µM (active) | 0.881 µM (active) | 1.4 µM (inactive) | 0.78 µM | 
5 | O=[N+]([O-])C(=C/c1ccccc1)/C(=C\c1ccccc1)[N+](=O)[O-] | 19.1 µM (inactive) | 16.6 µM (inactive) | 10.3 µM (inactive) | 26.7 µM (inactive) | 20.1 µM (inactive) | 1.71 µM (inactive) | 15.2 µM (inactive) | 20 µM (inactive) | 16.8 µM (inactive) | 18.2 µM (inactive) | 15.6 µM (inactive) | 15.9 µM (inactive) | 13.5 µM (inactive) | 14.7 µM (inactive) | 20 µM (inactive) |  | 7.11 µM (inactive) | 15.2 µM (inactive) |  | 21.3 µM (inactive)
6 | COc1cc2c(cc1OC)-c1cc3ccccc3c(=O)n1CC2 | 5.19 µM (inactive) | 18.2 µM (inactive) | 13.7 µM (inactive) | 24.9 µM (inactive) | 11.7 µM (inactive) | 25 µM (inactive) | 37.5 µM (inactive) | 29 µM (inactive) | 19.5 µM (inactive) | 43.7 µM (inactive) | 16.4 µM (inactive) | 7.26 µM (inactive) | 29.1 µM (inactive) | 10.3 µM (inactive) | 13.3 µM (inactive) |  | 26.1 µM (inactive) | 37.8 µM (inactive) |  | 14.1 µM (inactive)
7 | Cc1ccc(S(N)(C(=O)Nc2cccc3ccccc23)[N+](=O)[O-])cc1 (stereo not drawn) | > 100 µM (inactive) | > 100 µM (inactive) | 48.6 µM (inactive) |  | > 100 µM (inactive) | 42.3 µM (inactive) | > 100 µM (inactive) | > 100 µM (inactive) | > 100 µM (inactive) | 92.5 µM (inactive) | > 100 µM (inactive) | 93.3 µM (inactive) | > 100 µM (inactive) | > 100 µM (inactive) | > 100 µM (inactive) | 39.3 µM (inactive) | 55 µM (inactive) | > 100 µM (inactive) | > 100 µM | > 100 µM (inactive)
8 | c1ccc2cc3n[se]nc3cc2c1 |  | > 100 µM (inactive) | > 100 µM (inactive) | > 100 µM (inactive) | > 100 µM (inactive) | 32.5 µM (inactive) | 39.7 µM (inactive) | > 100 µM (inactive) | 48.8 µM (inactive) | 81.1 µM (inactive) | > 100 µM (inactive) | 68.1 µM (inactive) | > 100 µM (inactive) | > 100 µM (inactive) | > 100 µM (inactive) | > 100 µM (inactive) | > 100 µM (inactive) | > 100 µM (inactive) | > 100 µM | 
9 | COc1nc2ccc(CNc3ccc(C(=O)NC(CCC(=O)O)C(=O)O)cc3)cc2nc1OC (stereo not drawn) | > 100 µM (inactive) | > 100 µM (inactive) | > 100 µM (inactive) | > 100 µM (inactive) | > 100 µM (inactive) | 23.2 µM (inactive) | > 100 µM (inactive) | > 100 µM (inactive) | > 100 µM (inactive) | > 100 µM (inactive) | > 100 µM (inactive) | > 100 µM (inactive) | 39.6 µM (inactive) | 32.8 µM (inactive) | > 100 µM (inactive) | > 100 µM (inactive) | 25.3 µM (inactive) | > 100 µM (inactive) | 53.1 µM | 
10 | O=C1C(Cl)N(c2ccccc2)C1c1c[nH]c2ccccc12 (stereo not drawn) | > 100 µM (inactive) | > 100 µM (inactive) | > 100 µM (inactive) | > 100 µM (inactive) | > 100 µM (inactive) | > 100 µM (inactive) | > 100 µM (inactive) | > 100 µM (inactive) | > 100 µM (inactive) | 48.9 µM (inactive) | > 100 µM (inactive) | > 100 µM (inactive) | > 100 µM (inactive) |  | > 100 µM (inactive) | > 100 µM (inactive) | > 100 µM (inactive) | > 100 µM (inactive) |  | > 100 µM (inactive)
11 | CC(C)OP(=O)(OC(C)C)/C(I)=N/Nc1ccc([N+](=O)[O-])cc1 | > 100 µM (inactive) | > 100 µM (inactive) | > 100 µM (inactive) | > 100 µM (inactive) | > 100 µM (inactive) | > 100 µM (inactive) | > 100 µM (inactive) | > 100 µM (inactive) | > 100 µM (inactive) | > 100 µM (inactive) | > 100 µM (inactive) | > 100 µM (inactive) | > 100 µM (inactive) |  | > 100 µM (inactive) | > 100 µM (inactive) | > 100 µM (inactive) | > 100 µM (inactive) | > 100 µM | > 100 µM (inactive)
12 | COC(OC)C1OC(CO)C(n2cc(F)c(=O)[nH]c2=O)C1O (stereo not drawn) | > 100 µM (inactive) | > 100 µM (inactive) | > 100 µM (inactive) | > 100 µM (inactive) | > 100 µM (inactive) | > 100 µM (inactive) | > 100 µM (inactive) | > 100 µM (inactive) | > 100 µM (inactive) | > 100 µM (inactive) | > 100 µM (inactive) |  | > 100 µM (inactive) | > 100 µM (inactive) | > 100 µM (inactive) | > 100 µM (inactive) | > 100 µM (inactive) | 10.7 µM (inactive) | > 100 µM | > 100 µM (inactive)
13 | O=c1oc2ccccc2n1P(=O)(n1c(=O)oc2ccccc21)n1c(=O)oc2ccccc21 | > 100 µM (inactive) | > 100 µM (inactive) |  | > 100 µM (inactive) | > 100 µM (inactive) | > 100 µM (inactive) | > 100 µM (inactive) |  | > 100 µM (inactive) | > 100 µM (inactive) | > 100 µM (inactive) |  | > 100 µM (inactive) | > 100 µM (inactive) | > 100 µM (inactive) | > 100 µM (inactive) | > 100 µM (inactive) | > 100 µM (inactive) |  | > 100 µM (inactive)
14 | c1ccc(/N=C2\SC3=NCCN3\C2=N/c2ccccc2)cc1 | 18.7 µM (inactive) | 7.38 µM (inactive) | 16.3 µM (inactive) |  | 19.9 µM (inactive) | 2.68 µM (inactive) | 20.1 µM (inactive) | 25.9 µM (inactive) | > 10 µM (inactive) | 17.1 µM (inactive) | 17.7 µM (inactive) | 15.5 µM (inactive) |  |  | 34 µM (inactive) |  | 4.24 µM (inactive) | 15.5 µM (inactive) | 10 µM | 27.1 µM (inactive)
15 | C/C(=C1/N=C(c2cc([N+](=O)[O-])ccc2Cl)N(c2ccc(Br)cc2)C1=O)c1cc2ccccc2oc1=O | > 100 µM (inactive) | 18.2 µM (inactive) | 26.6 µM (inactive) | 39.6 µM (inactive) | 22.6 µM (inactive) | 16.5 µM (inactive) | 38.3 µM (inactive) | 81.8 µM (inactive) | 26.1 µM (inactive) | 55.8 µM (inactive) | 48.3 µM (inactive) | 23.4 µM (inactive) | 34.2 µM (inactive) | 17.3 µM (inactive) | 90.4 µM (inactive) | 23.7 µM (inactive) | 34.4 µM (inactive) | 3.38 µM (inactive) | 8.22 µM | 
